The target of one assay is T1, soluble RpfC^Δinput (Xanthomonas campestris pv. campestris, UniProt P0C0F7).
T1 construct: a truncated, soluble RpfC protein (RpfC^Δinput) lacking the N-terminal input region (including sensor and TM domains) was obtained and purified; His6 (C); made in house; host or cells: E. coli BL21(DE3), pET30a
Put plainly: Thermal shift assay, soluble RpfC^Δinput. The format is binding. Here is the method: (§1) DSF was mixed with purified proteins or liposomes of RpfC to a final concentration of 0 μM, 5 μM or 10 μM respectively in the reaction buffer (50 mM Tris-HCl pH 7.8, 25 mM NaCl, 100 mM KCl). The protein concentration was 0.5–1 μg/μl. The TSA was performed by a Prometheus NT.48 nanoDSF device with a temperature gradient of 20–95°C, 1°C /min. Unfolding transition points were determined according to the changes of intrinsic tryptophan fluorescence at 330 nm, 350 nm. The ratio of fluorescence and the melting temperature (Tm) were calculated by the NT Melting Control software (NanoTemper Technologies).

The target in the next assay is T2, RpfC^R15A liposome (Xanthomonas campestris pv. campestris, UniProt P0C0F7, R15A).
T2 construct: His6 (C); made in house; host or cells: E. coli BL21(DE3), pET30a
Put plainly: MST binding, RpfC^R15A liposome. Here is the method: (§2) Binding reactions of RpfC to DSF was measured by microscale thermophoresis in a Monolith NT.Label Free (Nano Temper Technologies GMBH, Germany) instrument which detects changes in size, charge and conformation induced by binding. RpfC liposomes were collected with centrifugation of 200,000 g for 40 min and resuspended in MST buffer (50 mM Tris-HCl pH 7.8, 150 mM NaCl, 10 mM MgCl2, 0.05% Tween-20) to an approximate concentration of 0.1 μM. A range of concentration of DSF (range from 0.06 μM to 2 mM) in assay buffer (50 mM Tris-HCl pH 7.8, 150 mM NaCl, 10 mM MgCl2, 0.05% Tween-20, 5% methanol) was incubated with RpfC liposomes (1:1, v/v) for 10 minutes. The sample was loaded into the NT.Label Free standard capillaries and measured with 20% LED power and 40% MST power. Purified sensor protein was dissolved in reaction buffer (50 mM Tris-HCl pH 8.5, 150 mM NaCl, 0.1% Tween-20) to a final concentration as 8 μM. Dilute DSF from 0.0122 μM to 25 μM in buffer (50 mM Tris-HCl pH 8.5, 150 mM NaCl, 0.25‰ methanol). Different concentrations of DSF and sensor protein (1:1, v/v) were mixed and loaded into NT.Label Free standard capillaries. […]
(§3) Supplementary file ppat.1006304.s004.pdf: S4 Fig Substitution of essential amino acid impact DSF-RpfC interaction. Microscale thermophoresis (MST) was used to quantify the binding affinity between DSF and RpfC derivates. […]

In assay [1] the target is T3, RpfC^S3A liposome (Xanthomonas campestris pv. campestris, UniProt P0C0F7, S3A).
T3 construct: His6 (C); made in house; host or cells: E. coli BL21(DE3), pET30a
Put plainly: Autokinase assay, RpfC^S3A liposome. The format is biochemical. Particulars: 0.75 μM DSF, 5 min. The method, then: (§4) in vitro phosphorylation assay was conducted as described in our previous study. For autophosphoylation, RpfC liposomes or IMV were incubated with 100 μM ATP containing 10 μCi [γ-^32P]ATP (PerkinElmer, USA) in autophosphorylation buffer (50 mM Tris-HCl, pH 7.8, 2 mM DTT, 25 mM NaCl, 25 mM KCl, 5 mM MgCl2) for indicated time (28°C). If necessary, DSF was added into the mixture 20 min before addition of ATP. The reaction was stopped with 6 × SDS-PAGE loading buffer. The phosphorylated proteins were separated by 12% SDS-PAGE. After SDS-PAGE electrophoresis, gels were separated from back glass plate and placed in a Ziploc bag and exposed to a phosphor screen for 1 hour. The screen was scanned with a PhosphorImage system (Amersham Biosciences, USA) at […]. If necessary, signal intensity was measured by Quantity One software (Bio-Rad).

The target of assay [2] is T3, RpfC^S3A liposome. Put plainly: MST binding, RpfC^S3A liposome. Here is the method: as §2, §3
A further assay has as its target GST (Schistosoma japonicum, UniProt P08515). Put plainly: Circular dichroism of GST. The settings on record: GST 6 μM.
The next assay concerns the target T4, RpfC^FL IMV (Xanthomonas campestris pv. campestris, UniProt P0C0F7).
T4 construct: His6 (C); made in house; host or cells: E. coli BL21(DE3), pET30a
Put plainly: In vitro autokinase assay, RpfC^FL inverted membrane vesicles. The format is biochemical. Particulars: 10 μM DSF. The method, then: as §4

In assay [3] the target is T5, soluble RpfC protein without input region (RpfC^Δinput) (Xanthomonas campestris pv. campestris, UniProt P0C0F7).
T5 construct: a truncated, soluble RpfC protein (RpfC^Δinput) lacking the N-terminal input region (including sensor and TM domains) was obtained and purified; His6 (C); made in house; host or cells: E. coli BL21(DE3), pET30a
Put plainly: MST binding, soluble RpfC^Δinput. The settings on record: RpfC^Δinput 0.1 μM.

For assay [4], the target named is T6, RpfC^FL liposome (Xanthomonas campestris pv. campestris, UniProt P0C0F7).
T6 construct: His6 (C); made in house; host or cells: E. coli BL21(DE3), pET30a
Put plainly: Thermal shift assay (differential scanning fluorimetry), RpfC^FL liposome. The format is binding. Here is the method:
as §1
(Differential scanning fluorimetry follows unfolding on heating by fluorescence.)

In assay [5] the target is T6, RpfC^FL liposome. Put plainly: In vitro autokinase (phosphorylation) assay, RpfC^FL liposome. The format is biochemical. The settings on record: 10 μM DSF. Here is the method:
as §4

Another assay concerns the target T7, RpfC^E19A liposome (Xanthomonas campestris pv. campestris, UniProt P0C0F7, E19A).
T7 construct: His6 (C); made in house; host or cells: E. coli BL21(DE3), pET30a
Put plainly: MST binding, RpfC^E19A liposome. Here is the method:
as §2, §3

Experimental findings from article PMC5391125, “Fatty acid DSF binds and allosterically activates histidine kinase RpfC of phytopathogenic bacterium Xanthomonas campestris pv. campestris to regulate quorum-sensing and virulence” (PLoS Pathogens, 2017) are described below.

On to `CC(C)CCCCCCC/C=C\C(=O)O` [DSF, cis-11-methyl-dodecenoic acid], for which the “thermal shift after DSF stimulation” value at soluble RpfC^Δinput was “no thermal shift was detected”. The “binding between DSF and RpfC liposome” value on RpfC^R15A liposome and on RpfC^E19A liposome was “completely eliminated the binding” in each case. Moreover, at RpfC^S3A liposome [1], the “RpfC-P level under DSF stimulation” value was “remarkably increased”. On RpfC^S3A liposome [2] (MST), the Kd was determined as 613 ± 340 nM. In addition, the “increase of binding affinity compared with WT RpfC” value at RpfC^S3A liposome [2] (S3A replacement) is reported as “approximately 20%”. Moreover, at GST, the “impact on secondary structure” value is given as “did not have recognizable impact”. The “level of RpfC^FL-P phosphorylation compared with the control” value on RpfC^FL IMV and on RpfC^FL liposome [5] was “approximately doubled” throughout. For the same molecule, the “time of increase in phosphorylation level post DSF addition” value at RpfC^FL IMV was 30 s; at RpfC^FL liposome [5], 2 min. Besides, the “binding to DSF” value in [3] was “didn’t bind”. For the same molecule, the “melting temperature (Tm)” value is 64.27 °C at RpfC^FL liposome [4] (5 μM DSF vs. 10 μM RpfC) and 66.27 °C on RpfC^FL liposome [4] (10 μM DSF vs. 10 μM RpfC).

Usually Kd stands for the constant that tells how readily two partners part at equilibrium.
